Drawing on patent publication US20250091989A1, “SMALL MOLECULE PROTEIN SYNTHESIS MODULATORS” (Interdict Bio, Inc., priority 2023, published 2025), this text covers IC50 for 25 molecules.

One test concerns ALK. Description: In vitro transcription-translation (IVTT) reporter assay, ALK test sequence. It is filed as biochemical. Particulars: HeLa S3 lysate, sfGFP/mCherry ratio, 2 hrs at 30° C. An excerpt: (§1) All reporter constructs have been cloned into the pT7CFE1-CHis plasmid (ThermoFisher #88860) using Gibson assembly procedures (NEB #E2611L). The parental pT7CFE1-CHis plasmid contains an EMCV IRES at the 5′UTR for translation initiation, a multiple-cloning site (MCS) for gene insertion, an optional C-terminal His-epitope tag, and polyA sequence in the 3′UTR to regulate mRNA stability. All reporters are designed to be inserted at the MCS to include a red fluorescent protein (mCherry), P2A self-cleaving peptide which releases the preceding mCherry protein product, and a fusion open reading frame containing a 3×FLAG epitope, a peptide sequence of interest (TEST), and green fluorescent protein (sfGFP).
(§2) Construct Plasmid Preparation: All plasmids are isolated from MACH1 cells (ThermoFisher) grown overnight in ampicillin-containing luria broth, and purified using ZymoPure Express Plasmid Midiprep Kit (Zymo Research). Constructs are sequenced verified and diluted to a working concentration of 110 ng/μL.
(§3) HeLa S3 Lysate Preparation: HeLa S3 cell pellets are acquired from Ipracell/Ipratech (Belgium) and shipped as 4 mL frozen cell pellets on dry ice for storage at −80° C. until use. The procedure for lysate preparation is as follows. Prepare 1× Lysis Buffer, cold and stored on ice:
(§4) Each preparation takes 8 cell pellets (4 ml packed volume each, approximately 1.0×10^9 cells per pellet). Thaw cell pellets from −80° C. on ice for 90 mins. Lay pellets horizontally on top of the ice and rotate every 30 mins to ensure even thawing. Once thawed, add 4 mL of cold lysis buffer to each pellet, and using a serological pipet, gently pipet up and down to break up clumps. Incubate resuspended cells in ice for an additional 30 mins (plunged into ice). During 30 min incubation, rinse and RNase-zap (Ambion) glass dounces (use loose pestle “A”), gently dry and place on ice until needed. Prepare RNase-free Eppendorf tubes for spinning and for batch storage. Add batch labels to 1.5-1.7 mL RNase-free microcentrifuge tubes (labeling scheme below). Each batch will have an extra 1.5-1.7 mL RNase-free microcentrifuge tube for 40 μL of lysate, label the top of this tube (labeling scheme below). After 30 min incubation, transfer all 8 mL of cell pellet to dounce. Cell lysis is complete after douncing 100 times. Aliquot cell lysis into 1.5-1.7 mL temporary-microcentrifuge tubes. Place tubes in centrifuge with “fins” out, and spin at 1,200 xg for 5 mins. After the first spin use a 1 mL pipet to resuspend each tube and repeat spin. This acts as an additional lysis step, is more vigorous and increases lysate yield. During second spin get liquid N2 and a fresh conical tube on ice.
(§5) After spin is complete, transfer supernatant (lysate) from microcentrifuge tubes into the 50 mL conical tube and keep on ice. Repeat steps 10-14 for all other cell pellets until completed. Once all cell lysate has been transferred to the 50 mL conical tube pipet to mix so the solution is homogenous. Transfer 1 mL of lysate into batch-labeled microcentrifuge tubes and flash freeze in liquid nitrogen. Be sure to pipet up and down to mix throughout transfer step. Place all tubes in the […] for long-term storage.
(§6) In vitro transcription-translation assay setup: Each assay includes a master mix containing lysate and shared components, a 96-well plate containing compound titrations for testing, a 96-well DNA plate with reporter constructs to be tested, 96-well skirted PCR plates, and 96-well flat-bottom, black, fluorescent assay plates. […]

The next test has as its system MYC. Nature of the test: In vitro transcription-translation (IVTT) reporter assay, MYC test sequence. It is filed as biochemical. Particulars: HeLa S3 lysate, sfGFP/mCherry ratio, 2 hrs at 30° C.
Description: as §1, §2, §3, §4, §5, §6
Background: Reporter assays use an easily measured gene product as a stand-in for the process of interest.

In the case of `COc1ccc(C[C@H]2NC[C@H](O)[C@H]2OC(=O)c2ccc(F)c(S(=O)(=O)N(C)C)c2)cc1` [V000196, (2R,3S,4S)-4-hydroxy-2-[(4-methoxyphenyl)methyl]pyrrolidin-3-yl 3-(dimethylsulfamoyl)-4-fluorobenzoate], the IC50 with ALK and with MYC was > 30 µM in each case.
As to `COc1ccc(C[C@H]2NC[C@H](O)[C@H]2OC(=O)CC[C@H]2CNCCN2)cc1` [V041828, (2R,3S,4S)-4-hydroxy-2-[(4-methoxyphenyl)methyl]pyrrolidin-3-yl 3-[(2S)-piperazin-2-yl]propanoate], the IC50 in the test with ALK and in the test on MYC was > 30 µM throughout.
For the molecule `COc1ccc(C[C@H]2NC[C@H](O)[C@H]2OC(=O)[C@@H]2CN(Cc3ccccc3)CC23CNC3)cc1` [V186717, (2R,3S,4S)-4-hydroxy-2-[(4-methoxyphenyl)methyl]pyrrolidin-3-yl (8S)-6-benzyl-2,6-diazaspiro[3.4]octane-8-carboxylate], the half-inhibitory concentration (IC50) in the test with ALK and in the test with MYC was > 30 µM in each case.
As to `COc1ccc(C[C@H]2NC[C@H](O)[C@H]2OC(=O)C2(N)CCCC2)cc1` [V186782, (2R,3S,4S)-4-hydroxy-2-[(4-methoxyphenyl)methyl]pyrrolidin-3-yl 1-aminocyclopentane-1-carboxylate], the 50% inhibitory concentration (IC50) in the test on ALK and with MYC was > 30 µM throughout.
Take `COc1ccc(C[C@H]2NC[C@H](O)[C@H]2OC(=O)[C@H]2CC[C@@H](O)CC2)cc1` [V186823, (2R,3S,4S)-4-hydroxy-2-[(4-methoxyphenyl)methyl]pyrrolidin-3-yl (1 s,4 s)-4-hydroxy cyclohexane-1-carboxylate]: the IC50 – broadly, the concentration that gives 50% inhibition – in the test on ALK is 20 to 30 µM; in the test on MYC, > 30 µM.
Taken in the same sequence, the figures for `COc1ccc(C[C@H]2NC[C@H](O)[C@H]2OC(=O)CC[C@H]2CN(C)CCN2C)cc1` [V186854, (2R,3S,4S)-4-hydroxy-2-[(4-methoxyphenyl)methyl]pyrrolidin-3-yl 3-[(2S)-1,4-dimethylpiperazin-2-yl]propanoate; trifluoroacetic acid] were > 30 µM and > 30 µM.
Taken in the same sequence, the figures for `COc1ccc(C[C@H]2NC[C@H](O)[C@H]2OC(=O)CCn2ccc(=O)[nH]c2=O)cc1` [V186992, (2R,3S,4S)-4-hydroxy-2-[(4-methoxyphenyl)methyl]pyrrolidin-3-yl 3-(2,4-dioxo-3H-pyrimidin-1-yl)propanoate] were < 10 µM and < 10 µM.
For `CC(=O)O[C@@H]1[C@@H](O)CN[C@@H]1Cc1ccc(-c2nn[nH]n2)cc1` [V187008, (2R,3S,4S)-4-hydroxy-2-{[4-(2H−1,2,3,4-tetrazol-5-yl)phenyl]methyl}pyrrolidin-3-yl acetate; trifluoroacetic acid] the same measures were < 10 µM and < 10 µM.
`COc1ccc(C[C@H]2NC[C@H](O)[C@H]2OC(=O)Cc2cccs2)cc1` [V187050, (2R,3S,4S)-4-hydroxy-2-[(4-methoxyphenyl)methyl]pyrrolidin-3-yl 2-(thiophen-2-yl)acetate]: the IC50 with ALK and with MYC was < 10 µM throughout.
Take `COc1ccc(C[C@H]2NC[C@H](O)[C@H]2OC(=O)Cc2nccs2)cc1` [V187052, (2R,3S,4S)-4-hydroxy-2-[(4-methoxyphenyl)methyl]pyrrolidin-3-yl 2-(1,3-thiazol-2-yl)acetate; trifluoroacetic acid]: the IC50 in the test on ALK and in the test with MYC was < 10 µM throughout.
As to `COc1ccc(C[C@H]2NC[C@H](O)[C@H]2OC(=O)CCc2ccccc2)cc1` [V187069, (2R,3S,4S)-4-hydroxy-2-[(4-methoxyphenyl)methyl]pyrrolidin-3-yl 3-phenylpropanoate], the IC50 in the test on ALK and in the test with MYC was < 10 µM in each case.
As for `COc1ccc(C[C@H]2NC[C@H](O)[C@H]2OC(=O)CCc2cn(C)cn2)cc1` [V187096, (2R,3S,4S)-4-hydroxy-2-[(4-methoxyphenyl)methyl]pyrrolidin-3-yl 3-(1-methylimidazol-4-yl)propanoate; trifluoroacetic acid], the IC50 with ALK and with MYC was < 10 µM throughout.
Regarding `COc1ccc(C[C@H]2NC[C@H](O)[C@H]2OC(=O)Cc2ccc(N3CCOCC3)cc2)cc1` [V187134, (2R,3S,4S)-4-hydroxy-2-[(4-methoxyphenyl)methyl]pyrrolidin-3-yl 2-[4-(morpholin-4-yl)phenyl]acetate], the IC50 in the test with ALK and with MYC was < 10 µM each time.
As to `COc1ccc(C[C@H]2NC[C@H](O)[C@H]2OC(=O)Cn2cnnc2)cc1` [V187181, (2R,3S,4S)-4-hydroxy-2-[(4-methoxyphenyl)methyl]pyrrolidin-3-yl 2-(1,2,4-triazol-4-yl)acetate], the IC50 in the test with ALK is < 10 µM; in the test with MYC, 20 to 30 µM.
As to `CC(=O)O[C@@H]1[C@@H](O)CN[C@@H]1Cc1ccc(OC(F)(F)F)cc1` [V187185, (2R,3S,4S)-4-hydroxy-2-{[4-(trifluoromethoxy)phenyl]methyl}pyrrolidin-3-yl acetate], the IC50 in the test with MYC was < 10 µM.
Consider `O=C(CC1CC(F)(F)C1)O[C@@H]1[C@@H](O)CN[C@@H]1Cc1ccc(-c2cnco2)cc1` [V192387, (2R,3S,4S)-4-hydroxy-2-{[4-(1,3-oxazol-5-yl)phenyl]methyl}pyrrolidin-3-yl 2-(3,3-difluorocyclobutyl)acetate], for which the IC50 with MYC was < 10 µM.
Consider `O=C(CC1CC(F)(F)C1)O[C@@H]1[C@@H](O)CN[C@@H]1Cc1ccc(-c2cncs2)cc1` [V192840, (2R,3S,4S)-4-hydroxy-2-{[4-(1,3-thiazol-5-yl)phenyl]methyl}pyrrolidin-3-yl 2-(3,3-difluorocyclobutyl)acetate], for which the IC50 in the test on MYC was < 10 µM.
For `O=C(CC[C@@H]1CCCN1)O[C@@H]1[C@@H](O)CN[C@@H]1Cc1ccc(-c2cnco2)cc1` [V192841], the half-inhibitory concentration (IC50) in the test on MYC was < 10 µM.
With `O=C(CC[C@@H]1CCCN1)O[C@@H]1[C@@H](O)CN[C@@H]1Cc1ccc(-c2cncs2)cc1` [V192842, (2R,3S,4S)-4-hydroxy-2-{[4-(1,3-thiazol-5-yl)phenyl]methyl}pyrrolidin-3-yl 3-[(2S)-pyrrolidin-2-yl]propanoate], the IC50 with MYC is < 10 µM.
Take `O=C(Cc1cccc(F)c1)O[C@@H]1[C@@H](O)CN[C@@H]1Cc1ccc(-c2cnco2)cc1` [V192843, (2R,3S,4S)-4-hydroxy-2-{[4-(1,3-oxazol-5-yl)phenyl]methyl}pyrrolidin-3-yl 2-(3-fluorophenyl)acetate]: the IC50 in the test on MYC is < 10 µM.
On to `O=C(Cc1cccc(F)c1)O[C@@H]1[C@@H](O)CN[C@@H]1Cc1ccc(-c2cncs2)cc1` [V192844, (2R,3S,4S)-4-hydroxy-2-{[4-(1,3-thiazol-5-yl)phenyl]methyl}pyrrolidin-3-yl 2-(3-fluorophenyl)acetate], for which the half-inhibitory concentration (IC50) in the test with MYC is < 10 µM.
With `COc1ccc(C[C@H]2NC[C@H](O)[C@H]2OC(=O)CC[C@@H]2CCCN2)cc1` [V192931, (2R,3S,4S)-4-hydroxy-2-[(4-methoxyphenyl)methyl]pyrrolidin-3-yl 3-[(2S)-pyrrolidin-2-yl]propanoate], the IC50 in the test on MYC is < 10 µM.
In the case of `CC(=O)O[C@@H]1[C@@H](O)CN[C@@H]1Cc1ccc(-c2cnco2)cc1` [V192987, (2R,3S,4S)-4-hydroxy-2-{[4-(1,3-oxazol-5-yl)phenyl]methyl}pyrrolidin-3-yl acetate], the IC50 in the test with MYC was < 10 µM.
For the molecule `O=C(C[C@@H]1CCNC1)O[C@@H]1[C@@H](O)CN[C@@H]1Cc1ccc(C(F)F)cc1` [V193046, (2R,3S,4S)-2-{[4-(difluoromethyl)phenyl]methyl}-4-hydroxypyrrolidin-3-yl 2-[(3S)-pyrrolidin-3-yl]acetate], the 50% inhibitory concentration (IC50) in the test with MYC was < 10 µM.
Same read-out and setting: for `O=C(C[C@@H]1CCNC1)O[C@@H]1[C@@H](O)CN[C@@H]1Cc1ccc(-c2cnco2)cc1` [V193047, (2R,3S,4S)-4-hydroxy-2-{[4-(1,3-oxazol-5-yl)phenyl]methyl}pyrrolidin-3-yl 2-[(3S)-pyrrolidin-3-yl]acetate] the value was < 10 µM.
